Source: US20210046160A1 (Synthorx, Inc., priority 2019, published 2021)
Where “and” joins values, the source holds several entries; their conditions need not be identical. Identical values can stand only once.

Tests used:
Treg cells = experiment: pSTAT5 concentration-response in human LRS-derived PBMC samples (flow cytometry): Treg cells; assay type: cell-based; details: Table 4; ratio of pSTAT5 EC50 values
Description: These studies were performed at PrimityBio LLC (Fremont, Calif.). […] Staining panel for flow cytometry study of LRS-derived PBMC samples include markers for Effector T cells (Teff: CD3+, CD4+, CD8+, CD127+), NK cells (CD3-, CD16+), and Regulatory T cells (Treg: CD3+, CD4+, CD8-, IL-2Rα+, CD127-1).
The EC50 values (pg/mL) was calculated from dose response curves generated from MFI plots.
These studies were performed at PrimityBio LLC (Fremont, Calif.). […] Staining panel for flow cytometry study of LRS-derived PBMC samples include markers CD4, CD4+ memory central, CD4+ memory effect, CD4+ memory T cells, CD4+ Naive T cells, CD4+ T cells, CD8, CD8+ memory central, CD8+ memory effect, CD8+ memory T cells, CD8+ Naive T cells, CD8+ T cells, NK cells, and T regulatory cells.
Conjugates of Table 12 were synthesized by modification of SEQ NO. 1. These studies were performed at PrimityBio LLC (Fremont, Calif.).
The EC50 values (pg/ml) were calculated from dose response curves generated from the MFI plots.

CTLL-2 = CTLL-2 proliferation; assay type: cell-based; details: Table 4
[1] = system: pSTAT5 and proliferation in CD8+ T, NK and Treg cells; experiment: Pharmacodynamics in peripheral blood compartment (pSTAT5, Ki-67, cell counts), Example 5; assay type: in vivo, C57BL/6 mice; details: mice
Source text: Terminal blood samples were collected via cardiac puncture at the points indicated. […] Plasma and blood cells (in both studies) and tumors in study E3826-U1803 were collected for PK and PD analyses.
STAT5 phosphorylation and induction of cell proliferation (the early molecular marker Ki-67 and cell counts) was used as pharmacodynamics readouts to assess the pharmacological profile of P65_30kD relative to its pharmacokinetics.

CT-26 colon tumors = experiment: Efficacy in CT-26 tumor-bearing Balb/c mice, Studies 1-3 (tumor growth inhibition, survival); assay type: in vivo; details: for median survival time: Compound A 6 mg/kg QWx3, anti-PD-1 antibody 10 mg/kg BIWx3, or both
Source text: Studies of Compound A as monotherapy and in combination with an anti-PD-1 antibody were undertaken in Balb/c female mice. […] Balb/c female mice, 7-8 weeks of age, with an average weight of 18 to 22 g were purchased from Taconic Biosciences by HD Biosciences for study 3. Cryogenically preserved vials of CT-26 colon cancer cells were purchased from American Tissue Type Collection (ATCC, Manassas, Va.). Cells were thawed and cultured according to the manufacturer's protocol. On the day of tumor cell inoculation, cells were washed in serum-free media, counted, and resuspended in cold serum-free media at a concentration of 250,000 (studies 1 and 2) or 300,000 (study 3) viable cells per 0.1 mL. The CT-26 cells (0.1 mL) were injected subcutaneously into the flanks of individual mice and tumors were allowed to grow.
For studies 1 and 2 in which a combination of Compound A and an anti-PD-1 antibody were used, the antibody used was anti-mouse PD-1 (BioXcell; RMP1-14) and the control antibody was IgG1 isotype antibody (BioXcell; catalog #BP0089, lot #2A3). For study 3 in which an anti-PD-1 antibody was used, the antibody used was anti-mouse PD-1 (BioXcell; catalog #BP0146, RMP1-14, lot #695318A1) and the control antibody was IgG1 isotype antibody (BioXcell; catalog #BP0089, lot #2A3).
Lyophilized Compound A was reconstituted into 10 mg/mL stock with 0.1 M acetic acid. It was then further diluted into working concentration with 1× phosphate buffered saline (PBS). The compound was reconstituted and diluted within an hour of dosing of animals and kept on ice until dosing. The lyophilized compound was stored at −80° C. before use. Vehicle was stored at 4° C.
Three separate efficacy studies were performed using CT-26 tumor-bearing Balb/c mice. The design for study 1, which evaluated Compound A for dose-dependent efficacy as a single agent, is outlined in Table 19. The designs for studies 2 and 3, which evaluated the efficacy of Compound A in combination with an anti-PD-1 antibody, are outlined in Table 20 and Table 21, respectively. The route of administration for Compound A was intravenous (IV). IV dosing in the mice was done via the tail vein. The antibody was administered intraperitoneally (IP). All agents were administered based on the individual body weight of each animal obtained immediately prior to each dosing. Details on the dosing regimen are described below.
In Study 1, CT-26 tumor-bearing mice were treated with vehicle IV once a week for a total of 3 doses (QWx3) or Compound A at 0.3, 1, or 3 mg/kg IV, either once a week for a total of three doses (QWx3), or once every 2 weeks for a total of 2 doses (Q2Wx2), starting on Day 4 following tumor cell inoculation when the average tumor volume was ˜80 mm^3.
In Study 2, CT-26 tumor-bearing mice were treated on Day 5 following tumor cell inoculation when the average tumor volume was ˜80 mm^3. Dosing was with vehicle IV QWx3+ IgG isotype control IP or Compound A at 3 or 6 mg/kg IV, on a QWx3 dosing schedule, or anti-PD-1 antibody at 10 mg/kg IP, or the combination of Compound A at 6 mg/kg IV QWx3+ anti-PD-1 antibody at 10 mg/kg IP. The IP dosing of the antibody in all cases was twice a week for 3 weeks with a total of 6 doses (BIWx3).
In Study 3, CT-26 tumor-bearing mice were treated on Day 7 following tumor cell inoculation when the average tumor volume was ˜70 mm3. Dosing was with vehicle IV QWx3+ IgG isotype control IP BIWx3; or Compound A at 1, 3, 6, or 9 mg/kg IV on a QWx3 dosing schedule, or anti-PD-1 antibody at 10 mg/kg IP BIWx3; or the combination of Compound A at 1, 3, or 6 mg/kg IV QWx3+ anti-PD-1 antibody at 10 mg/kg IP BIWx3.
Animals were observed daily for clinical signs.
Tumor growth was monitored using digital caliper measurements every 3 to 4 days until the end of the study. Tumor volume was calculated as Width^2×Length/2, where width is the smallest dimension and length is the largest. Raw tumor volume data are presented in the study reports. […]

## P65_30kD: SEQ ID NO: 25: IL-2 (SEQ ID NO: 4) with P65 replaced by AzK click-conjugated to methoxy linear 30 kDa PEG [Compound P65_30kD]
Treg cells
  CD8/Treg ratio: 2.8
CTLL-2
  EC50, CTLL-2 proliferation: 677,198 pg/mL
[1]
  proliferative responses of CD8+ effector T cells and NK cells (not Tregs), time window: 72 to 120 h
[1]; single IV dose
  persistent elevation of pSTAT5 in NK and CD8+ T cells, up to: up to 72 h
  persistent elevation of pSTAT5 in Tregs, up to: up to 24 h
CT-26 colon tumors; Study 2
  median survival time: 27 days
CT-26 colon tumors; Study 3, Compound A 3 mg/kg, anti-PD-1 antibody 10 mg/kg, or both, day printed as 'Compound A days'
  animals surviving: 0 of 14 animals
CT-26 colon tumors; Study 3
  median survival time: 35 days
CT-26 colon tumors; Study 3, Compound A 6 mg/kg, anti-PD-1 antibody 10 mg/kg, or both, day printed as 'Compound A days'
  animals surviving tumor-free: 0 of 14 animals
CT-26 colon tumors; Study 3, Compound A 9 mg/kg IV QWx3
  animals found dead following >15% body weight loss due to treatment: 2 of the 14 animals
CT-26 colon tumors; Study #1, Compound A 0.3 mg/kg IV Q2Wx2, Day 15
  % TGI (Relative to Vehicle Control): 20%
CT-26 colon tumors; Study #1, Compound A 0.3 mg/kg IV QWx3, Day 15, listed as Compound A, 0.3 mg/kg
  % TGI (Relative to Vehicle Control): 19%
CT-26 colon tumors; Study #1, Compound A 1 mg/kg IV Q2Wx2, Day 15
  % TGI (Relative to Vehicle Control): 27%
CT-26 colon tumors; Study #1, Compound A 1 mg/kg IV QWx3, Day 15, listed as Compound A, 1 mg/kg
  % TGI (Relative to Vehicle Control): 31%
CT-26 colon tumors; Study #1, Compound A 3 mg/kg IV Q2Wx2, Day 15, listed as Compound A, 3 mg/kg
  % TGI (Relative to Vehicle Control): 45%
CT-26 colon tumors; Study #1, Compound A 3 mg/kg IV QWx3, Day 15, listed as Compound A, 3 mg/kg
  % TGI (Relative to Vehicle Control): 52% and 51* %
CT-26 colon tumors; Study #2, Compound A 3 mg/kg IV QWx3, listed as Compound A, 3 mg/kg
  % TGI (Relative to Vehicle Control): 56.3% and 56%
CT-26 colon tumors; Study #2, Compound A 6 mg/kg IV QWx3, listed as Compound A, 6 mg/kg
  % TGI (Relative to Vehicle Control): 35.6% and 36* %
CT-26 colon tumors; Study #3, Compound A 1 mg/kg IV QWx3, listed as Compound A, 1 mg/kg
  % TGI (Relative to Vehicle Control): 29.8% and 30%
CT-26 colon tumors; Study #3, Compound A 3 mg/kg IV QWx3, listed as Compound A, 3 mg/kg
  % TGI (Relative to Vehicle Control): 58.8% and 59*** %
CT-26 colon tumors; Study #3, Compound A 6 mg/kg IV QWx3, listed as Compound A, 6 mg/kg
  % TGI (Relative to Vehicle Control): 86.2% and 86*** %
CT-26 colon tumors; Study #3, Compound A 9 mg/kg IV QWx3, listed as Compound A, 9 mg/kg
  % TGI (Relative to Vehicle Control): 84.8% and 85*** %
